In US20040171795A1, “Novel peptides” (priority 2000, published 2004):

Columns and labels:
[1] = test system: nuclease Bal 31; test: Nuclease resistance-imparting ability for P=O form oligonucleotide; type: biochemical; details: 2 U Bal 31, 30° C., 60 minutes, peptide 50 μM, oligonucleotide 3 μM
Method: Nuclease resistance-imparting ability for natural (P═O form) oligonucleotide was evaluated. To be more specific, 2 U of nuclease Bal 31 (manufactured by Takara Shuzo) was added to 20 mM Tris-HCl buffer (pH=8) containing 50 μM of the peptide of SEQ ID NO:1 prepared in Example 1, 3 μM of P═O form oligonucleotide prepared in Example 6, 150 mM NaCl, 12 mM MgCl2, and 12 mM CaCl2, and the reaction was allowed to take place at 30° C. for 60 minutes. Next, the oligonucleotide which escaped from the decomposition was extracted with phenol/chloroform, and subjected to electrophoresis by the procedure described in Example 8 to stain the oligonucleotide.

[2] = test system: cell (Vero, T24 or A549 of Example 9; not given); test: Nucleic acid-introducing ability, luciferase-expressing plasmid (procedure of Example 9); type: cell-based
Method in brief: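 Cells pre-cultured 24 h, then exposed 5 h in opti-MEM to luciferase plasmid at 1 μg/mL with peptide at 1.25, 2.5 or 5 μM, then grown 24 h more at 37 °C. Lysate luciferase counts normalised to Bradford protein (cps/mg protein); highest of the three peptide levels taken as gene-introducing ability.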

[3] = test system: 21mer oligonucleotide; test: Binding ability to oligonucleotide (electrophoresis); details: charge ratio (+/−ratio) of 10
Method: The 21mer oligonucleotide prepared by the procedure described in Example 6 (final concentration, 6.7 μM) and the peptide prepared by the procedure described in Examples 1 to 3 were mixed in 20 mM Tris-HCl buffer (pH=7.2) containing 150 mM NaCl at a charge ratio (+/−ratio) of 0 to 10, and the mixture was allowed to stand at 37° C. for 30 minutes. Next, 7.5 μL of this solution was mixed with an equal amount of Tris-borate buffer (pH=8.2) containing 80% formamide, and electrophoresis was conducted on 25% polyacrylamide gel containing 7M urea. After the electrophoresis, the gel was stained with 5% aqueous solution of Stains all (manufactured by Funakoshi) containing 50% formamide and washed with water to thereby determine the binding of the oligonucleotide and the peptide.
The +/−ratio (charge ratio) indicated in FIG. 10 is the ratio of the number (+) of the positively-charged groups in the peptide to the number (−) of negatively-charged groups in the nucleic acid. As evident in FIG. 10, the amount of oligonucleotide that became bound to the peptide increased with the increase in the charge ratio (+/−ratio), and the oligonucleotide was fully bound to the peptide at a charge ratio (+/−ratio) of 10. The peptides of SEQ ID NO:2 to SEQ ID NO:24 were also found to bind at a charge ratio (+/−ratio) of 10.

## SEQ ID NO: 1: peptide having the amino acid sequence of SEQ ID NO:1, made by solid phase synthesis (TRYLRIHPRSWVHQIALRLRYLRIHPRSWVHQIALRS; synthetic peptide using an automatic peptide synthesizer)
[1]
  nuclease resistance-imparting ability for natural (P═O form) oligonucleotide: found to exhibit nuclease resistance-imparting ability
[2]; class of fluorescent count per 1 mg of protein per 1 second, highest of peptide 1.25, 2.5, 5 μM, plasmid 1 μg/mL
  Nucleic acid-introducing ability: 3+ (1,000,000 to less than 10,000,000)
[2]; procedure of Example 9, luciferase-expressing plasmid
  ability of introducing the nucleic acid into a cell: found to have the ability of introducing the nucleic acid into a cell
[3]
  binding of oligonucleotide to the peptide: fully bound
